# Legend:
# [1] = cited from earlier work
# [2] = system: food allergy symptoms induced by OVA; assay: Frequency of diarrhea in OVA-induced food allergy model mouse; format: in vivo; conditions: BALB/c mice sensitized with OVA, drug i.p. every day during OVA oral administration period; cromolyn 300 μg/mouse, DEX 2 mg/kg; n=5
# Procedure: (§1) Model preparation: Wild type BALB/c mice (6-8 weeks old, female) were intraperitoneally sensitized with OVA by administering OVA (50 μg) twice at intervals of two weeks. Two weeks later, OVA (10 mg) was orally administered 10 times in total at intervals of two days. As a control, the mice sensitized with OVA was orally administered with physiological saline 10 times in total at intervals of two days.
# Medication treatment: During the period of orally administering OVA to the mice sensitized with OVA in accordance with the aforementioned method, dexamethasone (2 mg/kg) or sodium cromoglycate (300 μg/mouse) were intraperitoneally administered every day.
# Symptom evaluation: The number of mice which developed diarrhea within one hour after the OVA administration is determined in percentage.
# [3] = system: tetranor-PGDM amount excreted in the urine; assay: Urinary tetranor-PGDM by HPLC-MS/MS in OVA-induced food allergy model mouse; format: in vivo; conditions: BALB/c mice sensitized with OVA, drug i.p. every day during OVA oral administration period; cromolyn 300 μg/mouse, DEX 2 mg/kg; n=5
# Procedure: as §1
# Medication treatment: During the period of orally administering OVA to the mice sensitized with OVA in accordance with the aforementioned method, dexamethasone (2 mg/kg) or sodium cromoglycate (300 μg/mouse) were intraperitoneally administered every day. […]
# Using the urine sample pretreated, tetranor-PGDM and tetranor-PGEM were measured by a high performance liquid chromatography tandem mass spectrometer (HPLC-MS/MS). […] As a quantitative method, MRM (Multiple Reaction Monitoring) method was employed. Tetranor-PGDM (mass number 328) and tetranor-PGEM (mass number 328) were detected by using product ion m/z 309, which was produced by further decomposing the produced precursor ion m/z (mass number÷charge) 327 by collision induced dissociation (CID). Internal standards, tetranor-PGDM-d6 (mass number 334) and tetranor-PGEM-d6 (mass number 334), were detected by using product ion m/z 315, which was produced by further decomposing precursor ion m/z (mass number÷charge) 333 by CID. […]
# [4] = cited from earlier work; remark: listed apart in the source
structure (smiles),measurement,setting,value
"CCCCC[C@H](O)/C=C/[C@H]1C(=O)C[C@H](O)[C@@H]1C/C=C\CCCC(=O)O [PGD2, prostaglandin D2]",time in which PGD2 is metabolized in vivo,[1],50 s
"O=C(O)c1cc(=O)c2c(OCC(O)COc3cccc4oc(C(=O)O)cc(=O)c34)cccc2o1 [cromolyn, sodium cromoglycate]",food allergy symptoms induced by OVA (frequency of diarrhea),[2],suppressed food allergy symptoms
same,tetranor-PGDM amount excreted in the urine,[3],significantly decreased
NCCc1c[nH]cn1 [histamine],time in which histamine in the blood disappears,[4],15 min
